We go through one molecule from US20250333404A1, “DEUTERATED COMPOUNDS” (Neurocrine Biosciences, Inc., priority 2022, published 2025).

The target in the assay is NaV1.6 (Homo sapiens (Human), UniProt Q9UQD0). Description: Sodium influx assay (ANG2 dye), NaV1.6. Format: cell-based. As to conditions: Trex HEK293 cells, human α-subunit + β1-subunit; inactivated state; read-out: Flux NaV1.6 IC50.
Chain of NaV1.6 (Q9UQD0 whole entry): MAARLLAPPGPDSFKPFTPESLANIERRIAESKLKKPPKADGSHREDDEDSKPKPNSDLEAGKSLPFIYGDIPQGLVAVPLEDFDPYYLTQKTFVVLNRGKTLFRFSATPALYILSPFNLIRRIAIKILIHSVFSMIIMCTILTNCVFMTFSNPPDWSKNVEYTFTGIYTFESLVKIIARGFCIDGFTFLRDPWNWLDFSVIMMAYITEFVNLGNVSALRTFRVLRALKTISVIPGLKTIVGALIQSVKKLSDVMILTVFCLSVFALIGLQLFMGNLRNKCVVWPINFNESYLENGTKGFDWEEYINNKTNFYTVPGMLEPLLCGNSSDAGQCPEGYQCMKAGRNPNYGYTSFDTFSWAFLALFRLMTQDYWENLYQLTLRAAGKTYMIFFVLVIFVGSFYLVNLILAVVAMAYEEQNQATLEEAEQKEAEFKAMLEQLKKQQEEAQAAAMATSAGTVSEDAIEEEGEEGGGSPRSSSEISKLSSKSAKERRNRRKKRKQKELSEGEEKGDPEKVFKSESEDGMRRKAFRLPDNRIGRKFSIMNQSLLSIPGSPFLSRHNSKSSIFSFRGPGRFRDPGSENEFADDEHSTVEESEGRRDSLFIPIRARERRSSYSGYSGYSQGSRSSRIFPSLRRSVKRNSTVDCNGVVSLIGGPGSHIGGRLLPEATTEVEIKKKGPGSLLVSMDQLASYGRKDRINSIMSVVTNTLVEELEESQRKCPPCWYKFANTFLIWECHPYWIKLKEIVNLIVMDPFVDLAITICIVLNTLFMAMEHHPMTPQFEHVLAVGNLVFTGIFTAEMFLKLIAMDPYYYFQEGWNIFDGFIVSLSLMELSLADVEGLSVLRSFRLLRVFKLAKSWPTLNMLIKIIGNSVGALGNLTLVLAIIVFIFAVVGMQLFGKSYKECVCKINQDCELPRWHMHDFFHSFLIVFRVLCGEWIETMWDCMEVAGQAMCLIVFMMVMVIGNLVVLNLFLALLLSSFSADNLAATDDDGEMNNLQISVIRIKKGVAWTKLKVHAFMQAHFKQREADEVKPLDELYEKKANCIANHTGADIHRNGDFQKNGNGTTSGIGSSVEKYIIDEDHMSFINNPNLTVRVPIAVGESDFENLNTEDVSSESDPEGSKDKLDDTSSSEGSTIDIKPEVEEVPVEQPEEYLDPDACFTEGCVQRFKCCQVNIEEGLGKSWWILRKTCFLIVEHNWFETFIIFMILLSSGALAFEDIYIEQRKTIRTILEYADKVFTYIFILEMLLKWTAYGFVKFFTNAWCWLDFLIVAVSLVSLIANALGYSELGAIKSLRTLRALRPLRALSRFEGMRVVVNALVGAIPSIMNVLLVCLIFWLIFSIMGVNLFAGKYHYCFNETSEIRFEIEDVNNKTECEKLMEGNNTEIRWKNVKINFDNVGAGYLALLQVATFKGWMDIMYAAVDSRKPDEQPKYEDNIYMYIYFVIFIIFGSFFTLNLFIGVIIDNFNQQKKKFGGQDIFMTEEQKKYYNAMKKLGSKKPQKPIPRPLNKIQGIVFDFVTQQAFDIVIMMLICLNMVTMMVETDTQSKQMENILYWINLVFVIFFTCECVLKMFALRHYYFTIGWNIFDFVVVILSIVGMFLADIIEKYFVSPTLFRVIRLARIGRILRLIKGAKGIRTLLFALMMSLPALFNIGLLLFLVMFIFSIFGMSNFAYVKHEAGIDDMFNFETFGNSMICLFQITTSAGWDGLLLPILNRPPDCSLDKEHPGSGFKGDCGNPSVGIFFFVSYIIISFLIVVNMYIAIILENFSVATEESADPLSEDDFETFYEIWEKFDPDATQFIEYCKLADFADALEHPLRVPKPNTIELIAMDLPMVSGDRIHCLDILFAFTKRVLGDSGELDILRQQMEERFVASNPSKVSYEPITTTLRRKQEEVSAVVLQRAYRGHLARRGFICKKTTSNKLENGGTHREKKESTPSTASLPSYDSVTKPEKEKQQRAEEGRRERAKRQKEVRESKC
Chain of NaV1.6 (Q07699 19-218 partner): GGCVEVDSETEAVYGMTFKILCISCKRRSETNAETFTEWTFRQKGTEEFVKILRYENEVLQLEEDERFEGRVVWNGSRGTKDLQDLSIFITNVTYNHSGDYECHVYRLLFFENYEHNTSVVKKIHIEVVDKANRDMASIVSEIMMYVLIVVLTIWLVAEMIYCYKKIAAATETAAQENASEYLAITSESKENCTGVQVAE

Consider `Cc1cc(S(=O)(=O)Nc2cscn2)c(F)cc1N(C)[C@H]1CCN(Cc2ccccc2)C1` [Compound 1, (S)-4-((1-benzylpyrrolidin-3-yl)(methyl)amino)-2-fluoro-5-methyl-N-(thiazol-4-yl)benzenesulfonamide], for which the half-inhibitory concentration (IC50) (usually the point on the concentration scale where inhibition reaches its midpoint) worked out at 272 nM.
